What all share (format): in vivo
Data set [1] concerns Beet Armyworm (Spodoptera exigua, LAPHEG) ("BAW"). The data set is described as follows: Bioassays on BAW, 128-well diet tray assay. The following applies: 168 h, second instar larvae, 50 μg/cm^2 on artificial diet, 25° C., five to seven days, average of eight wells, read-out: BAW % Control (or Mortality) rating. An outline of the steps: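 One to five second-instar larvae were placed per well on artificial diet surface-treated with 50 μg/cm^2 compound from 90:10 acetone-water, dried before infestation. Trays were held at 25 °C, 14:10 light-dark, for five to seven days. Percent mortality was averaged over eight wells.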

The subject of data set [2] is Cabbage Looper (Trichoplusia ni, TRIPNI) ("CL"). Nature of the data set: Bioassays on CL, 128-well diet tray assay. The following applies: 168 h, second instar larvae, 50 μg/cm^2 on artificial diet, 25° C., five to seven days, average of eight wells, read-out: CL % Control (or Mortality) rating. An outline of the steps:
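Second-instar larvae (one to five per well) on artificial diet surface-treated with 50 μg/cm^2 compound in 90:10 acetone-water, eight wells per treatment. Held at 25° C., 14:10 light-dark for five to seven days. Percent mortality scored per well and averaged over the eight wells.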

Data set [3] has as its system Corn Earworm (Helicoverpa zea, HELIZE) ("CEW"). Nature of the data set: Bioassays on CEW, 128-well diet tray assay. The settings on record: 168 h, second instar larvae, 50 μg/cm^2 on artificial diet, 25° C., five to seven days, average of eight wells, read-out: CEW % Control (or Mortality) rating. As to the method: Certain molecules disclosed in this document were tested against BAW, CEW, and CL using procedures described in the following examples. In the reporting of the results, the “BAW, CEW, & CL Rating Table” was used (See Table Section).
Bioassays on CEW were conducted using a 128-well diet tray assay. one to five second instar CEW larvae were placed in each well (3 mL) of the diet tray that had been previously filled with 1 mL of artificial diet to which 50 μg/cm^2 of the test compound (dissolved in 50 μL of 90:10 acetone-water mixture) had been applied (to each of eight wells) and then allowed to dry. Trays were covered with a clear self-adhesive cover, and held at 25° C., 14:10 light-dark for five to seven days. Percent mortality was recorded for the larvae in each well; activity in the eight wells was then averaged. The results are indicated in the table entitled “Table ABC: Biological Results” (See Table Section). Bioassays on CL

In data set [4] the test system is Green Peach Aphid (Myzus persicae, MYZUPE) ("GPA"). Nature of the data set: Bioassays on GPA, foliar spray of infested cabbage seedlings. The following applies: 72 h, 200 ppm spray on cabbage seedlings, graded after three days, Abbott corrected % control, read-out: GPA % Control (or Mortality) rating. An outline of the steps: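 Cabbage seedlings (2-3 true leaves) infested with 20-50 wingless adult and nymph aphids one day before spraying to runoff at 200 ppm in aqueous 0.025% Tween 20 with 20% acetone/methanol. Live aphids counted after three days at ~25 °C; % control by Abbott's correction versus solvent-check plants.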

Data set [5] relates to Yellow Fever Mosquito (Aedes aegypti, AEDSAE) ("YFM"). Nature of the data set: Bioassays on YFM, 96-well plate larval assay. The following applies: about 1 day-old larvae, from 4000 ppm DMSO master plate diluted, room temperature, scored after 3 days. An outline of the steps: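 Compounds from 4000 ppm DMSO master plates, diluted in 90:10 water:acetone, dispensed into 96-well plates, six replicates. About 1-day-old larvae added in liver-powder water. Wells covered, held 3 days at room temperature, then scored for mortality.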

Turning to `Cc1ccc(C)n1-c1ccccc1NC(=S)Nc1ccc(-c2ncn(-c3ccc(OC(F)(F)F)cc3)n2)cc1` [F75, 1-(2-(2,5-Dimethyl-1H-pyrrol-1-yl)phenyl)-3-(4-(1-(4-(trifluoromethoxy)phenyl)-1H-1,2,4-triazol-3-yl)phenyl)thiourea], the mortality at 50 µg/cm2 in data set [1], in data set [2] and in data set [3] was 50 to 100% each time. For the same compound, the mortality – broadly, the percentage killed – at 200 ppm in data set [4] was found to be 0%. Further, the “YFM % Control (or Mortality) rating” value in data set [5] was “D (No activity noticed in this bioassay)”.
For the compound `COc1ccc(NC(=S)NCc2ccc(-c3ncn(-c4ccc(OC(F)(F)C(F)(F)F)cc4)n3)cc2)cc1` [F110, 1-(4-methoxyphenyl)-3-(4-(1-(4-(perfluoroethoxy)phenyl)-1H-1,2,4-triazol-3-yl)benzyl)thiourea], the results for the mortality at 50 µg/cm2 in data set [1] and in data set [3] were 50 to 100% and 0%, respectively. The mortality at 200 ppm in data set [4] turned out to be 0%. Besides, the “YFM % Control (or Mortality) rating” value in data set [5] is on record as “D (No activity noticed in this bioassay)”.
Turning to `COc1ccc(NC(=S)NCc2ccc(-c3ncn(-c4ccc(OC(F)(F)C(F)(F)F)cc4)n3)cc2)c(C)c1` [F111, 1-(4-methoxy-2-methylphenyl)-3-(4-(1-(4-(perfluoroethoxy)phenyl)-1H-1,2,4-triazol-3-yl)benzyl)thiourea], the mortality at 50 µg/cm2 in data set [1] and in data set [3] was 50 to 100% each time. The mortality at 200 ppm in data set [4] is 0%. In addition, the “YFM % Control (or Mortality) rating” value in data set [5] is “A (80-100)”.
In the case of `CN(C)c1ccc(NC(=S)NCc2ccc(-c3ncn(-c4ccc(OC(F)(F)C(F)(F)F)cc4)n3)cc2)cc1` [F112, 1-(4-(Dimethylamino)phenyl)-3-(4-(1-(4-(perfluoroethoxy)phenyl)-1H-1,2,4-triazol-3-yl)benzyl)thiourea], the mortality at 50 µg/cm2 in data set [1] was 0 to 50%; in data set [3], 0%. Moreover, the mortality at 200 ppm in data set [4] is 0%. In data set [5], the “YFM % Control (or Mortality) rating” value was “D (No activity noticed in this bioassay)”.

Source of the values: patent publication US9445594B2, “Molecules having certain pesticidal utilities, intermediates, compositions, and processes, related thereto” (priority 2014, dated 2016).
